In this data set the test system is human (tumor) Hif2α (EPAS1) mRNA. Briefly: Hif2α knockdown in orthotopic RCC tumor bearing mice, single injection of RNAi trigger-delivery polymer conjugate, RT-qPCR (Table 7). The class given is in vivo. The note with it: single tail vein injection, relative to isotonic glucose. The gist of the method:
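A single intravenous dose of Hif2α RNAi trigger–delivery polymer conjugate, or isotonic glucose vehicle, was given to nude mice with subcapsular A498-SEAP renal tumours (about 5–6 weeks old). At the indicated time, tumour RNA was assayed by biplex TaqMan qPCR against CycA, and relative expression was calculated by ΔΔCT versus vehicle.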

[1] abbreviates: RNAi trigger 80 μg, polymer 126 400 μg.

On to “AD01255 (antisense TUUCAUGAAAUCGUUACGUTT; sense UAUACGUAACGAUUUCAUGAAAT; Hif2alpha RNAi agent antisense strand; modified_base 2,4,6,8,10,12,14,16,18 /mod_base = “2′-deoxy-2′-fluoro corresponding nucleoside”; modified_base 3,5,7,9,11,13,15,17,19 /mod_base = “2′-O-methyl corresponding nucleoside”; modified_base 21 /mod_base = “5′-phosphorothioate corresponding nucleotide”; Hif2alpha RNAi agent sense strand; modified_base 2 modified base = “2′-hydroxy corresponding nucleoside”; modified_base 4,6,8,10,12,14,16,18,20,22 /mod_base = “2′-deoxy-2′-fluoro corresponding nucleoside”; modified_base 1,3,5,7,9,11,13,15,17,19,21 /mod_base = “2′-O-methyl correspondin g nucleosid)”, for which the “Relative Expression day 4 (Hif2α mRNA in kidney tumor)” value under setting [1] is listed as 0.28.
Consider “AD01032 (antisense TAAGUUAAGCUCCCAUACATT; sense UGUAUGGGAGCUUAACUUAT; Hif2alpha RNAi agent antisense strand; modified_base 2,4,8,10,12,14,16,18 /mod_base = “2′-deoxy-2′-fluoro corresponding nucleoside”; modified_base 3,5,7,9,11,13,15,17,19 /mod_base = “2′-O-methyl corresponding nucleoside”; modified_base 6 /mod_base = “2′-3′ seco corresponding nucleotide”; modified_base 21 /mod_base = “5′-phosphorothioate corresponding nucleotide”; Hif2alpha RNAi agent sense strand; modified_base 1,3,5,7,9,11,13,15,17,19 /mod_base = “2′-deoxy-2′-fluoro corresponding nucleoside”; modified_base 2,4,6,8,10,12,14,16,18 /mod_base = “2′-O-methyl corresponding nucleoside”; modified_b)”, for which, under setting [1], the “Relative Expression day 4 (Hif2α mRNA in kidney tumor)” value is given as 1.00.
With “AD02874 (antisense UUUCAUGAAAUCGUUACGUUG; sense UAUACGUAACGAUUUCAUGAAAT; Hif2alpha RNAi agent antisense strand; modified_base 2,4,6,8,10,14,16,18 /mod_base = “2′-deoxy-2′-fluoro corresponding nucleoside”; modified_base 1,3,5,7,9,11,12,13,15,17,19,20,21 /mod_base = “2′-O-methyl corresponding nucleoside”; modified_base 2,3,20,21 /mod_base = “5′-phosphorothioate corresponding nucleotide”; Hif2alpha RNAi agent sense strand; modified_base 2 modified base = “2′-hydroxy corresponding nucleoside”; modified_base 10,11,12,16 /mod_base = “2′-deoxy-2′-fluoro corresponding nucleoside”; modified_base 1,3,4,5,6,7,8,9,13,14,15,17,18,19,20,21,22 /mod_base = “2′-O-methyl correspon)”, the “Relative Expression day 4 (Hif2α mRNA in kidney tumor)” value (RNAi trigger 50 μg, polymer 064 125 μg) turned out to be 0.138.

The values are drawn from patent publication US9976141B2, “Compositions and methods for inhibiting gene expression of Hif2alpha” (Arrowhead Madison Inc., priority 2015, dated 2018).
